Laboratory results from PMC4020785 (PLoS ONE, 2014).

Tests used:
[1] = Cytotoxicity (CC50) in MT-4 cells; assay type: cell-based; details: human, Subtype B (X4)
Experimental: (§1) Cytotoxicity of ISDs was evaluated in J-Lat (clones 9.2 and 10.6) and PHA-activated human PBMCs. Cells were added to wells in a 96-well plate in the presence of various concentrations of ISDs, PMA or prostratin in sextuplicates for 24 and 72 h. Cell viability was determined using the CellTiter-blue fluorescence Cell Viability Assay (Promega) following the manufacturer's instruction.
(§2) Human PMBCs were incubated with 100 U recombinant IL-2 (Sigma-Aldrich) and 5 µg/mL phytohemagglutinin-P (PHA-P) (Difco) for 5 days at 37°C. MT-4 cells (1×10^6) or treated PBMCs (1.2×10^8) were infected with HIV-1 clone NL-4.3 or ZM247Fv-1 (MOI of 0.001) by spinoculation (1200 g at room temperature for 2 h). Uninfected cells were used as negative control and were also subjected to the spinoculation process. After spinoculation, supernatants were discarded and cells were resuspended in 10 mL of R10. Cells from each condition were then added to wells (96-well plate) containing serial dilutions of each ISD. For MT-4 cells, each dilution was done in sextuplicates and, for PBMCs, in triplicates. Cells were also incubated with different concentrations of ZDV as positive control. After 5 days in culture, Cell Titer Blue was added to each well and cells were incubated for additional 24 h. The median effective concentration for each drug is defined as EC50. In parallel with the infectivity assay, the same cell types were treated with different concentrations of drugs to determine their cytotoxicity, following the protocol described above. Drug concentration that results in a 50% decrease in viable cells is defined as the CC50 for each compound. EC50 was calculated according to Spearman-Karber and therapeutic index was defined by the ratio between CC50 and EC50 [55].

HIV LTR in J-Lat clones = assay: LTR-driven GFP expression in J-Lat clones; assay type: cell-based, HIV-1; details: J-Lat clones 9.2 and 10.6, 48 h, all concentrations tested
Experimental: J-Lat cells are Jurkat cells stably transfected by an HIV genome whose nef sequence was replaced by the GFP gene. Also, a frameshift mutation was introduced to the env gene to prevent virus spread. […] To test the ISDs, a million cells of each clone were treated with different concentrations of each compound (ING-A, ING-B, ING-C, prostratin and PMA) at 37°C. TNF-α (10 ng/mL) was used as a positive control. After 48 h, cells were collected, washed with saline solution (PBS) and GFP expression was evaluated in a FACScalibur cytometer (BD Biosciences). Data were analyzed with Cell Quest Pro software (BD Biosciences).

[2] = tested on: HIV-1 clone NL4.3 (subtype B); assay: HIV-1 NL4.3 (subtype B) infection of MT-4 cells, Cell Titer Blue readout; assay type: cell-based; details: for EC50: Human immunodeficiency virus 1, MT4
Experimental: as §2
(§3) All statistical analyses were performed using program GraphPism version 6.0. Titrations for TCID50 infectivity were calculated by the Spearman-Karber method. Dose response curves to ISDs with HIV-1 subtype B and C were done using non-linear regression and were fit to the Hill equation.

[3] = tested on: HIV-1 clone ZM247Fv-1 (subtype C); assay: HIV-1 ZM247Fv-1 (subtype C) infection of human PBMCs, Cell Titer Blue readout; assay type: cell-based; details: for TI (CC50/EC50): Human PBMC, Subtype C (R5); for EC50: Human immunodeficiency virus 1, PBMC
Experimental: as §2, §3

[4] = tested on: HIV-1 clone ZM247Fv-1 (subtype C); assay: HIV-1 ZM247Fv-1 (subtype C) infection of MT-4 cells, Cell Titer Blue readout; assay type: cell-based; details: for EC50: Human immunodeficiency virus 1, MT4; for TI (CC50/EC50): MT-4 cells, Subtype C (R5)
Experimental: as §2, §3

[5] = Cytotoxicity (CC50) in human PBMCs; assay type: cell-based; details: human PBMCs activated with IL-2 and PHA-P; Human PBMC, Subtype C (R5)
Experimental: as §1, §2

[6] = tested on: HIV-1 clone NL4.3 (subtype B); assay: HIV-1 NL4.3 (subtype B) infection of human PBMCs, Cell Titer Blue readout; assay type: cell-based
Experimental: as §2, §3

[7] = tested on: CD4, CXCR4, CCR5 on MT-4 cells; assay: Surface CD4, CXCR4, CCR5 expression in MT-4 cells (cytometry); assay type: cell-based; details: 1 µM
Experimental: (§4) For analysis of cell surface marker expression, MT-4 cells and bead-selected CD4+ T cells (described above) were incubated with 1 µM of each compound (ING-A, ING-B, ING-C, prostratin, PMA, and bryostatin-1) at 37°C for 48 h. After incubation, cells were washed with PBS and incubated for 20 min at room temperature with antibodies against CD3-Brilliant Violet 510 (clone OKT3 – Biolegend), CD4-Qdot 655 (clone 53.5 - Life Technologies), CXCR4-PE (clone 1265 - BD Biosciences), CCR5-PerCP-Cy5.5 (clone 3A9 - BD Biosciences), CD69-Pacific Blue (clone FN50 – BD Biosciences), CD38-FITC (clone AT-1 – Stem Cell Technologies), CD25-APC (clone 2A3 – BD Biosciences), HLA-DR-Qdot 605 (clone TÜ36 – Life Technologies) and a marker for annexin V-FITC (Life Technologies). Cells (both MT-4 cells and CD4+ T cells) were initially incubated for 2 h with different PKC inhibitors (GÖ6983, GÖ6976 or RO-31-8220). Then, ING-B, prostratin or PMA at 1 µM or TNF-α at 10 ng/mL were added to each condition and incubation was carried out for 24 h at 37°C. Similar protocol was used for the analysis of PKC inhibitors in J-Lat clones 9.2 and 10.6. GFP expression, surface marker expression and activation marker were evaluated on a LSR Fortessa cytometer (BD Biosciences). Data analysis was performed using FlowJo software (Tree Star).

[8] = tested on: CD4, CXCR4, CCR5 on CD4+ T lymphocytes; assay: Surface CD4, CXCR4, CCR5 expression in CD4+ T lymphocytes (cytometry); assay type: cell-based, human; details: CD4+ lymphocytes, 1 µM
Experimental: as §4

HIV-1 subtype B and C = assay: Inhibition of HIV-1 subtype B and C replication, summary over MT-4 cells and human PBMCs; assay type: cell-based; details: Human immunodeficiency virus 1, PBMC, MT-4 and human PBMCs
Experimental: as §2

PKC [9] = assay: PKC inhibitors on diterpene-induced GFP expression in J-Lat clones 9.2 and 10.6; assay type: cell-based
Experimental: as §4

PKC [10] = assay: PKC inhibitors on ING-B-driven receptor downregulation in MT-4 cells; assay type: cell-based; details: 0.1 µM inhibitor, then 1 µM ING-B 24 h
Experimental: as §4

PKC [11] = assay: PKC inhibitors on ING-B-driven receptor downregulation in CD4+ T lymphocytes; assay type: cell-based, human; details: 0.1 µM inhibitor in the presence of 1 µM ING-B
Experimental: as §4

[12] = Human immunodeficiency virus 1, PBMC

SMILES | CC50 at 5 days [1] [nM] | levels of GFP expression, rank order (HIV LTR in J-Lat clones) | EC50 [2] [nM] | TI (CC50/EC50) ([2]; MT-4 cells, Subtype B (X4)) | TI (CC50/EC50) [3] | EC50 [3] [nM] | EC50 [4] [nM] | TI (CC50/EC50) [4] | CC50 at 5 days [5] [nM] | TI (CC50/EC50) ([6]; Human PBMC, Subtype B (X4)) | EC50 [6, 12] [nM] | also measured
CCCCCCCCCCCC(=O)O[C@H]1C(C)=C[C@]23C(=O)[C@@H](C=C(CO)[C@@H](O)[C@]12O)[C@H]1[C@@H](C[C@H]3C)C1(C)C [ING-C, ingenol-3-dodecanoate] | 27000 | PMA = ING-B > ING-A = ING-C > prostratin | 41 | 658.5 | 413 | 92 | 36 | 750 | 38000 | 730.7 | 52 | 
CC1=C[C@]23C(=O)[C@@H](C=C(CO)[C@@H](O)[C@]2(O)[C@H]1OC(=O)/C=C/c1ccccc1)[C@H]1[C@@H](C[C@H]3C)C1(C)C [ING-A, ingenol-3-trans-cinnamate] | 25000 | PMA = ING-B > ING-A = ING-C > prostratin | 37 | 675.6 | 693.9 | 49 | 38 | 657.9 | 34000 | 641.5 | 53 | 
CCC/C=C/C=C/C(=O)O[C@H]1/C(=C/C(=O)OC)C[C@H]2C[C@H]([C@@H](C)O)OC(=O)C[C@H](O)C[C@@H]3C[C@H](OC(C)=O)C(C)(C)[C@](O)(C[C@@H]4C/C(=C/C(=O)OC)C[C@H](/C=C/C(C)(C)[C@]1(O)O2)O4)O3 [bryostatin-1] |  |  |  |  |  |  |  |  |  |  |  | downregulation of surface CD4 and CXCR4 (in words) [7]: not by prostratin and bryostatin-1; downregulation of surface CCR5 [8]: less efficient in downregulating surface expression of CCR5
Cc1cn([C@H]2C[C@H](N=[N+]=[N-])[C@@H](CO)O2)c(=O)[nH]c1=O [ZDV, Zidovudine, reference compound] |  |  |  |  |  | 8 | 5 |  |  |  |  | EC50 ([2]; MT-4 cells, Subtype B (X4), value estimated by extrapolation, read-out: EC50): 4 nM; EC50 (HIV-1 subtype B and C): 4 to 8 nM; EC50 ([6]; Human immunodeficiency virus 1, Human PBMC, Subtype B (X4), read-out: EC50): 7 nM
Cn1cc(C2=C(c3cn(CCCSC(=N)N)c4ccccc34)C(=O)NC2=O)c2ccccc21 [RO-31-8220] |  |  |  |  |  |  |  |  |  |  |  | reduction of ING-B-driven GFP expression (PKC [9]; discussion statement): 75%; GFP expression reduced to (PKC [9]; pre-incubation with 0.1 µM inhibitor, response to ISDs, prostratin and PMA): 75%; effect on ING-B-driven receptor downregulation (PKC [10]): not able to downregulate the expression of CD4 and CXCR4; overexpression of CD4 and CCR5 compared to untreated control (PKC [11]): up to 2.5 fold
